Measured values: patent US7544657B2, “Stabilized Exendin-4 compounds” (Zealand Pharma A/S, priority 2002, dated 2009)

Columns and labels:
db/db mice = assay: Oral glucose tolerance test (OGTT); type: in vivo; settings: OGTT in db/db mice, compound i.p. 15 min before oral glucose 1 g/kg, ED50 based on curve fits of AUC0-240 min
Method: Oral Glucose Tolerance Test (OGTT)
The anti diabetic effect of the present compounds was tested in an oral glucose tolerance test (OGTT). In short, animals were fasted over night, and blood samples were taken from the tip of the tail and the blood glucose measured. The whole blood glucose (mM) concentration was analysed by the immobilised glucose oxidase method using a drop of blood (<5 μl; Elite Autoanalyser, Bayer, Denmark) following the manufacturer's manual. The animals were kept fasted throughout the test. Immediately after the initial blood sample (fasting blood glucose level) test compound or vehicle was administered i.p. Fifteen minutes later an oral dose of glucose ((1 g/kg) Sigma, St. Louis, Mo., U.S.A.)), dissolved in phosphate buffer (pH=7.40) was given, and the animals were returned to their home cages (time=0). […] To analyse the effects of the test compounds on oral glucose tolerance the absolute difference in BG from baseline (fasting BG) was calculated for each time point. The area under the curve (AUC) (FIG. 1-8) for the whole experiment (AUC0-120 min) or (AUC0-240 min) was determined using the trapezoid method. Before starting the experimental series an OGTT was used to stratify animals into groups of 9-10 animals displaying similar glucose tolerances in all groups. Animals displaying excessive glucose excursion 30 min after glucose loading (BG>33 mmol/l) were excluded from the study.

diabetic db/db mice = settings: given systemically; cited from earlier work
[1] = Table 2, another set of experiments

Compound 2: Stabilized derivative of Compound 1 (SEQ ID NO: 2), obtained by exposing Compound 1 to H2O2 (HGEGTFTSDLSKQMEEEAVRLFIEWLKDGGPSSGAPPSKKKKKK)
ED50 (db/db mice; [1]): 0.011 nmol/kg

Compound 5: Stabilized derivative of Compound 1 (SEQ ID NO: 5), formed by incubation in NH4HCO3 pH 7.9 at 40° C. (HGEGTFTSDLSKQMEEEAVRLFIEWLKDGGPSSGAPPSKKKKKK)
ED50 (db/db mice; [1]): 0.043 nmol/kg

Compound 6: Stabilized derivative of Compound 1 (SEQ ID NO: 6), formed by incubation in NH4HCO3 pH 7.9 at 40° C. (HGEGTFTSDLSKQMEEEAVRLFIEWLKDGGPSSGAPPSKKKKKK)
ED50 (db/db mice; Table 1): 0.013 nmol/kg

Compound 14: Stabilized derivative of Compound 1 (SEQ ID NO: 14), formed by incubation in NH4HCO3 pH 7.9 at 40° C. (HGEGTFTSDLSKQMEEEAVRLFIEWLKDGGPSSGAPPSKKKKKK)
ED50 (db/db mice; Table 1): 0.55 nmol/kg

Exendin-4
lowering of blood glucose levels (diabetic db/db mice): 40%

des Pro^36 Exendin-4 (1-39)-K6 [Compound 1]
ED50 (db/db mice; Table 1): 0.049 nmol/kg | ED50 (db/db mice; [1]): 0.073 nmol/kg
